Measured values published in patent US20100069366A1, “ANTIBACTERIAL QUINOLINE DERIVATIVES” (JANSSEN-CILAG, priority 2006, published 2010).
≈ marks a conversion by molar mass, not a printed value. Read-outs that look alike come from different tables or passages of the source. Values belong to the compound of their own block, whether it stands above or below them.

Key:
Format in all cases: cell-based
M. Smegmatis ATCC607 = assay: In-vitro anti-bacterial activity against strain M. smegmatis ATCC607; conditions: for IC90: Mycolicibacterium smegmatis
Protocol: Flat-bottom, sterile 96-well plastic microtiter plates were filled with 180 μl of sterile deionized water, supplemented with 0.25% BSA. Subsequently, stock solutions (7.8× final test concentration) of compounds were added in 45 μl volumes to a series of duplicate wells in column 2 so as to allow evaluation of their effects on bacterial growth. Serial five-fold dilutions (45 μl in 180 μl) were made directly in the microtiter plates from column 2 to 11 using a customised robot system (Zymark Corp., Hopkinton, Mass.). Pipette tips were changed after every 3 dilutions to minimize pipetting errors with high hydrophobic compounds. Untreated control samples with (column 1) and without (column 12) inoculum were included in each microtiter plate. Approximately 250 CFU per well of bacteria inoculum, in a volume of 100 μl in 2.8× Mueller-Hinton broth medium, was added to the rows A to H, except column 12. The same volume of broth medium without inoculum was added to column 12 in row A to H. The cultures were incubated at 37° C. for 48 hours in a humidified 5% CO2 atmosphere (incubator with open air valve and continuous ventilation). At the end of incubation, two days after inoculation, the bacterial growth was quantitated fluorometrically. Therefore Alamar Blue (10×) was added to all wells in a volume of 20 μl and plates were incubated for another 2 hours at […]
The fluorescence was read in a computer-controlled fluorometer (Cytofluor, Biosearch) at an excitation wavelength of 530 nm and an emission wavelength of 590 nm (gain 30).

[1] = system: Staphylococcus aureus (ATCC29213); assay: Microtitre plate assay, IC90 determination, STA 29213
Protocol: (§1) The bacteria used in this study were grown overnight in flasks containing 100 ml Mueller-Hinton Broth (Becton Dickinson—cat. no. 275730) in sterile de-ionized water, with shaking, at 37° C. Stocks (0.5 ml/tube) were stored at −70° C. until use. Bacteria titrations were performed in microtiter plates to detect the TCID50, in which the TCID50 represents the dilution that gives rise to bacterial growth in 50% of inoculated cultures.
(§2) In general, an inoculum level of approximately 100 TCID50 was used for susceptibility testing.
(§3) Flat-bottom, sterile 96-well plastic microtiter plates were filled with 180 μl of sterile deionized water, supplemented with 0.25% BSA. Subsequently, stock solutions (7.8× final test concentration) of compounds were added in 45 μl volumes in column 2 Serial five-fold dilutions (45 μl in […]) were made directly in the microtiter plates from column 2 to reach column 11. Untreated control samples with (column 1) and without (column 12) inoculum were included in each microtiter plate. Depending on the bacteria type, approximately 10 to 60 CFU per well of bacteria inoculum (100 TCID50), in a volume of 100 μl in 2.8× Mueller-Hinton broth medium, was added to the rows A to H, except column 12. The same volume of broth medium without inoculum was added to column 12 in row A to H. The cultures were incubated at 37° C. for 24 hours under a normal atmosphere (incubator with open air valve and continuous ventilation). At the end of incubation, one day after inoculation, the bacterial growth was quantitated fluorometrically. Therefore resazurin (0.6 mg/ml) was added in a volume of 20 μl to all wells 3 hours after inoculation, and the plates were re-incubated overnight. A change in colour from blue to pink indicated the growth of bacteria. The fluorescence was read in a computer-controlled fluorometer (Cytofluor Biosearch) at an excitation wavelength of 530 nm and an emission wavelength of 590 nm. The % growth inhibition achieved by the compounds was calculated according to standard methods.

[2] = system: Streptococcus pneumoniae (ATCC6305); assay: Microtitre plate assay, IC90 determination, SPN 6305; conditions: 90% inhibitory concentration for bacterial growth, resazurin
Protocol: as §1, §2, §3

[3] = ATCC607, 48 h, read-out: M. smegmatis IC90 (μg/ml), 90% inhibitory concentration for bacterial growth, Alamar Blue fluorescence
[4] = Staphylococcus aureus, ATCC29213, read-out: IC90 (μg/ml) STA 29213
[5] = Streptococcus pneumoniae, ATCC6305, read-out: IC90 (μg/ml) SPN 6305, Streptococcus pneumoniae ATCC6305
[6] = 90% inhibitory concentration for bacterial growth, 48 hours, Alamar Blue fluorescence
[7] = Staphylococcus aureus ATCC29213, 90% inhibitory concentration for bacterial growth, resazurin
[8] = Streptococcus pneumoniae ATCC6305
[9] = ATCC607, 90% inhibitory concentration for bacterial growth, 48 hours, Alamar Blue fluorescence, read-out: M. smegmatis IC90
[10] = Staphylococcus aureus ATCC29213, 90% inhibitory concentration for bacterial growth, resazurin, read-out: IC90 (μg/ml) STA 29213
[11] = Streptococcus pneumoniae ATCC6305, read-out: IC90 (μg/ml) SPN 6305

SMILES: CSc1nc2ccc(Br)cc2cc1C(/C(=C/CN(C)C)c1ccccc1)c1ccccc1 (stereo not drawn) [Compound 4]
IC90 (M. Smegmatis ATCC607; [3]): 7.98 µg/mL (≈ 15.8 µM)
IC90 [1, 4]: 40 µg/mL (≈ 79.4 µM)
IC90 [2, 5]: 17.9 µg/mL (≈ 35.5 µM)

SMILES: COc1ccc(/C(=C(\CCCCN2CCCCC2)c2ccc(Cl)cc2)c2cnc3ccccc3c2)cc1 [Compound 58]
IC90 (M. Smegmatis ATCC607; [3]): 8.1 µg/mL (≈ 15.8 µM)
IC90 [1, 4]: 10.2 µg/mL (≈ 20 µM)
IC90 [2, 5]: 12.8 µg/mL (≈ 25.1 µM)

SMILES: COc1nc2ccc(-c3ccccc3)cc2cc1C(=C(CCn1ccnc1)c1ccccc1)c1ccccc1 [Compound 46]
M. smegmatis IC90 (M. Smegmatis ATCC607; [6]): 1.61 µg/mL
IC90 (μg/ml) STA 29213 [1, 7]: 9.03 µg/mL (≈ 17.8 µM)
IC90 (μg/ml) SPN 6305 [2, 8]: 8.05 µg/mL (≈ 15.9 µM)

SMILES: Clc1ccc(/C(=C(\CCCCN2CCCCC2)c2ccccc2)c2cnc3ccccc3c2)cc1 [Compound 19]
IC90 (M. Smegmatis ATCC607; [3]): 1.52 µg/mL (≈ 3.16 µM)

SMILES: COc1nc2ccc(Br)cc2cc1C(=C(CCn1ccnc1)c1ccccc1)c1ccccc1 (single isomer, unassigned) [Compound 6]
M. smegmatis IC90 (M. Smegmatis ATCC607; [6]): 10.18 µg/mL
IC90 (μg/ml) STA 29213 [1, 7]: 10.18 µg/mL (≈ 19.9 µM)
IC90 (μg/ml) SPN 6305 [2, 8]: 10.18 µg/mL (≈ 19.9 µM)

SMILES: COc1ccc(/C(=C(\CCCCN2CCCCC2)c2ccccc2)c2cnc3ccccc3c2)cc1 [Compound 57]
IC90 (M. Smegmatis ATCC607; [3]): 7.55 µg/mL (≈ 15.8 µM)
IC90 [2, 5]: 9.51 µg/mL (≈ 20 µM)

SMILES: COc1nc2ccc(Br)cc2cc1C(C(=CCn1cncn1)c1ccccc1)c1ccccc1 (racemic) [Compound 47]
M. smegmatis IC90 (M. Smegmatis ATCC607; [6]): 20.36 µg/mL

IC90 (μg/ml) STA 29213 [1, 7]: 52.95 µg/mL
IC90 (μg/ml) SPN 6305 [2, 8]: 8.39 µg/mL
SMILES: COc1nc2ccc(Br)cc2cc1C(=C(CCN1CCOCC1)c1ccccc1)c1ccccc1 (mixture of isomers) [Compound 43]
M. smegmatis IC90 (M. Smegmatis ATCC607; [6]): 4.21 µg/mL

SMILES: COc1ccc2nc(OC)c(C(C(=CCN(C)C)c3ccccc3)c3ccccc3)cc2c1 (racemic) [Compound 31]
M. smegmatis IC90 (M. Smegmatis ATCC607; [6]): 6.95 µg/mL
IC90 (μg/ml) STA 29213 [1, 7]: 39.09 µg/mL (≈ 89.1 µM)
IC90 (μg/ml) SPN 6305 [2, 8]: 7.8 µg/mL (≈ 17.8 µM)

SMILES: COc1nc2ccc(-c3cccnc3)cc2cc1C(=C(CCN(C)C)c1cccc2ccccc12)c1ccccc1 [Compound 41]
M. smegmatis IC90 (M. Smegmatis ATCC607; [6]): 3.79 µg/mL
IC90 (μg/ml) STA 29213 [1, 7]: 8.49 µg/mL (≈ 15.8 µM)
IC90 (μg/ml) SPN 6305 [2, 8]: 9.53 µg/mL (≈ 17.8 µM)

IC90 [1, 10]: 47.7 µg/mL (≈ 100 µM)
IC90 [2, 11]: 21.3 µg/mL (≈ 44.7 µM)
SMILES: COc1ccc(/C(CCCCN2CCCCC2)=C(/c2ccccc2)c2cnc3ccccc3c2)cc1 [Compound 51]
IC90 (M. Smegmatis ATCC607; [9]): 7.55 µg/mL (≈ 15.8 µM)

IC90 [1, 10]: 9.09 µg/mL (≈ 17.8 µM)
IC90 [2, 11]: 10.2 µg/mL (≈ 20 µM)
SMILES: COc1ccc(/C(CCCCN2CCCCC2)=C(/c2ccc(Cl)cc2)c2cnc3ccccc3c2)cc1 [Compound 53]
IC90 (M. Smegmatis ATCC607; [9]): 2.03 µg/mL (≈ 3.97 µM)

SMILES: COc1nc2ccc(Br)cc2cc1C(=C(CCn1cncn1)c1ccccc1)c1ccccc1 (single isomer, unassigned) [Compound 42]
M. smegmatis IC90 (M. Smegmatis ATCC607; [6]): 22.84 µg/mL

IC90 [1, 10]: 17.5 µg/mL (≈ 35.5 µM)
IC90 [2, 11]: 8.78 µg/mL (≈ 17.8 µM)
SMILES: COc1nc2ccc(Br)cc2cc1/C(=C(/CCN(C)C)c1ccsc1)c1ccccc1 [Compound 18]
IC90 (M. Smegmatis ATCC607; [9]): 9.85 µg/mL (≈ 20 µM)

IC90 [1, 10]: 22.5 µg/mL (≈ 35.5 µM)
SMILES: COc1nc2ccc(Br)cc2cc1C(/C(=C\CCCN1CCCN(C)CC1)c1ccc2ccccc2c1)c1ccccc1 (stereo not drawn) [Compound 62]
IC90 (M. Smegmatis ATCC607; [9]): 8.97 µg/mL (≈ 14.1 µM)

SMILES: CSc1nc2ccc(-c3ccccc3)cc2cc1C(/C(=C/CN(C)C)c1ccccc1)c1ccccc1 (stereo not drawn) [Compound 20]
IC90 (M. Smegmatis ATCC607; [3]): 1.41 µg/mL (≈ 2.82 µM)
IC90 [1, 4]: 1.58 µg/mL (≈ 3.16 µM)
IC90 [2, 5]: 1.41 µg/mL (≈ 2.82 µM)

IC90 [1, 10]: 1.97 µg/mL (≈ 3.17 µM)
IC90 [2, 11]: 2.48 µg/mL (≈ 3.99 µM)
SMILES: COc1nc2ccc(Br)cc2cc1C(/C(=C/C#N)CCCCN1CC2CC1CN2Cc1ccccc1)c1ccccc1 (stereo not drawn) [Compound 60]
IC90 (M. Smegmatis ATCC607; [9]): 1.97 µg/mL (≈ 3.17 µM)

IC90 [2, 11]: 11.3 µg/mL (≈ 22.4 µM)
SMILES: COc1ccc(/C(CCCCN2CCCCC2)=C(/c2ccc(OC)cc2)c2cnc3ccccc3c2)cc1 [Compound 59]
IC90 (M. Smegmatis ATCC607; [9]): 8.03 µg/mL (≈ 15.8 µM)
